Where “and” joins values, the source holds several entries; their conditions need not be identical. Identical values can stand only once.
Assays:
[1] = biological target: T1, Serine/threonine-protein kinase Nek11 (Homo sapiens) (UniProt Q8NG66); experiment: Inhibition of NEK11 (unknown origin) at 1 uM relative to control
T1 sequence (whole entry): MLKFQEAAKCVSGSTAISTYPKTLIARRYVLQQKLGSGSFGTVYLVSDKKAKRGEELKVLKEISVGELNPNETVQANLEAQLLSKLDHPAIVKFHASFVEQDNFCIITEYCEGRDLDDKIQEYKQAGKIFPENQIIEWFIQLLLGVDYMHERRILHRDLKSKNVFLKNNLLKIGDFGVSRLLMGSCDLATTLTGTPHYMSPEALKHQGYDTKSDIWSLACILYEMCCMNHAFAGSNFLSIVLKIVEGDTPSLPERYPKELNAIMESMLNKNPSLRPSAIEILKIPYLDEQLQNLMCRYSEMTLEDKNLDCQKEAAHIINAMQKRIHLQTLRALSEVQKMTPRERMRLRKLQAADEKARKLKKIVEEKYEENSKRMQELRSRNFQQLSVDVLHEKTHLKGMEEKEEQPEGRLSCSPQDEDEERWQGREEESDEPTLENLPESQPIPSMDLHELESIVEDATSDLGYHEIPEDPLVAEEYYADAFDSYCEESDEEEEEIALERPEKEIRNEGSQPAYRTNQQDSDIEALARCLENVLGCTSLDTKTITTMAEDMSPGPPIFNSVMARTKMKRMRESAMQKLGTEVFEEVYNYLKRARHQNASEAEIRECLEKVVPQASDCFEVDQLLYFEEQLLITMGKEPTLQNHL

[2] = biological target: T2, Serine/threonine-protein kinase Nek2 (Homo sapiens) (UniProt P51955); experiment: Inhibition of NEK2 (unknown origin) at 1 uM relative to control
T2 sequence (whole entry): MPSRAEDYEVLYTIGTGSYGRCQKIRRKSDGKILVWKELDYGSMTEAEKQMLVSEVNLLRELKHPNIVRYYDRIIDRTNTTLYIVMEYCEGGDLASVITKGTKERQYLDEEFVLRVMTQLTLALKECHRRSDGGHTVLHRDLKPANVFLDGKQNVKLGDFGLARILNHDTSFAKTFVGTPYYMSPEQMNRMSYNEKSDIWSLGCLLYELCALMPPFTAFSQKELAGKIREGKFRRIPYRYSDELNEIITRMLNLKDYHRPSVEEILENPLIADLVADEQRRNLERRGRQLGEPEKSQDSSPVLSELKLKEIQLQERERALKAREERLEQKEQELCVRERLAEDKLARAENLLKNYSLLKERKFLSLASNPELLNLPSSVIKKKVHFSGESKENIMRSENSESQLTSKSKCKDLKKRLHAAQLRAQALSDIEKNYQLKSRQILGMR

[3] = biological target: T3, Serine/threonine-protein kinase Nek9 (Homo sapiens) (UniProt Q8TD19); experiment: Inhibition of NEK9 (unknown origin) at 1 uM relative to control
T3 sequence (whole entry): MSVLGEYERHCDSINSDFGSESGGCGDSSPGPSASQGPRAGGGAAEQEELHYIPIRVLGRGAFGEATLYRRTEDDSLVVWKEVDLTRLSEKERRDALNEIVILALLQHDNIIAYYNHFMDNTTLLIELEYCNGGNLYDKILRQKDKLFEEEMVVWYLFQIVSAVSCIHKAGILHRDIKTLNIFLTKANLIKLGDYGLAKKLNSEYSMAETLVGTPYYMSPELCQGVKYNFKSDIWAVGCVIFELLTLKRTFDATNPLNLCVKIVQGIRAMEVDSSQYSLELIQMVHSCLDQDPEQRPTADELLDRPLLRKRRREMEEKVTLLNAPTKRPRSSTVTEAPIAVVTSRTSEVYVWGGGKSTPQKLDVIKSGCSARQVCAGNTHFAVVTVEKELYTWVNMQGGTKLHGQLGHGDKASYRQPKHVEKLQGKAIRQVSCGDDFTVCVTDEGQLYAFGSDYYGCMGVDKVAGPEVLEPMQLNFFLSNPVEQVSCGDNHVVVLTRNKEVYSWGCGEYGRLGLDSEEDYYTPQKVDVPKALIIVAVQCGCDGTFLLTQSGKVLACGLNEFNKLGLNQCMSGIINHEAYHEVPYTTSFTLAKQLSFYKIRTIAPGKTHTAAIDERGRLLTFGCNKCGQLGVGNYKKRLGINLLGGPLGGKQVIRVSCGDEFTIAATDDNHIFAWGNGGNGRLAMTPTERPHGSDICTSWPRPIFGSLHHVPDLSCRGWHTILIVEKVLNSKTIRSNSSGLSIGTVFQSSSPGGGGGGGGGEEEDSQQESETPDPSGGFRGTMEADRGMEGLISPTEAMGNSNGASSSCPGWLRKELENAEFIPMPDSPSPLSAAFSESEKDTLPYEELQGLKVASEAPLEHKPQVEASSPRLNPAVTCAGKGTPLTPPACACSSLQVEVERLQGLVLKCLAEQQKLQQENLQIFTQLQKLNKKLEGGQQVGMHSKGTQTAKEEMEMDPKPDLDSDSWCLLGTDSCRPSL

[4] = biological target: T4, Serine/threonine-protein kinase Nek5 (Homo sapiens) (UniProt Q6P3R8); experiment: Inhibition of NEK5 (unknown origin) at 1 uM relative to control
T4 sequence (whole entry): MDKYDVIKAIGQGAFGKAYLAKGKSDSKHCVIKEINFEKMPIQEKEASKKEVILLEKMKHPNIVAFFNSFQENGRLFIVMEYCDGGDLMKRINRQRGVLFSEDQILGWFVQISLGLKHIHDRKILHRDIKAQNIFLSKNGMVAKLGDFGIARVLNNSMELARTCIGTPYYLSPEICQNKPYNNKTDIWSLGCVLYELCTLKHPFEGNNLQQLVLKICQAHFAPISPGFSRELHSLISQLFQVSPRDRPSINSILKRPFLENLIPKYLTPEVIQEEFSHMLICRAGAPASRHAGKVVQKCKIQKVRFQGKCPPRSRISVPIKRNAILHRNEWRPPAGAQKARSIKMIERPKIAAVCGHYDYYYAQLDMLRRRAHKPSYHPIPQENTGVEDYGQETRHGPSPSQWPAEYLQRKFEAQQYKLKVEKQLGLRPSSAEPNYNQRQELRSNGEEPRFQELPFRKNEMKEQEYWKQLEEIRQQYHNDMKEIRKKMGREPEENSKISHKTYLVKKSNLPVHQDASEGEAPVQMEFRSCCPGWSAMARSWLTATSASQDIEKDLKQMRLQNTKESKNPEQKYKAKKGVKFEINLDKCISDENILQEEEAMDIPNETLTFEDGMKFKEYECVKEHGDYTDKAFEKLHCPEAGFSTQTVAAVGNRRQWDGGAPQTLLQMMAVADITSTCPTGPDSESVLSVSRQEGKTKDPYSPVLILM

[5] = biological target: Serine/threonine-protein kinase Nek7 (Homo sapiens) (UniProt Q8TDX7); experiment: Inhibition of NEK7 (unknown origin) at 1 uM relative to control
Sequence of Serine/threonine-protein kinase Nek7 (Homo sapiens) (Q8TDX7 whole entry, looked up): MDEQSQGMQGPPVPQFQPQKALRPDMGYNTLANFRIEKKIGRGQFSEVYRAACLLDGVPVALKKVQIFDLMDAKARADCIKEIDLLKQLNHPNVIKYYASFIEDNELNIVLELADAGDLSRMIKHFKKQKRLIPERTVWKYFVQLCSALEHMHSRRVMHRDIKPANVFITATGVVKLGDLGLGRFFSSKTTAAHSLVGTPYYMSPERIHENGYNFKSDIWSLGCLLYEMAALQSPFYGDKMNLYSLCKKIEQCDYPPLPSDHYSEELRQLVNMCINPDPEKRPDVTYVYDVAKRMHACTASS

inhibition [1]	inhibition [2]	inhibition [4]	inhibition [5]	Structure (SMILES)	inhibition [3]
0%	16%	31%	20%	O=S(=O)(c1ccc(-c2ccnc3[nH]ccc23)cc1)N1CCCC1	28%
9%	7%	6%	0%	Nc1nccc2scc(-c3ccc4c(c3)CCN4C(=O)Cc3cc(F)ccc3F)c12	4%
86%	70%	93.1% and 99%	70%	COc1cc(Nc2ncc3c(C)nc(-c4cc5ccccc5[nH]4)n3n2)cc(OC)c1OC	70%
0%	79%	7%	17%	Cn1cc(-c2ccc3c(c2)CCN3C(=O)Cc2ccccc2Cl)c2c(N)ncnc21	33%

Source: ChEMBL document CHEMBL5252509, “In depth analysis of kinase cross screening data to identify chemical starting points for inhibition of the Nek family of kinases” (Medchemcomm, 2018)
